# Test results as given in the NIST ThermoML archive (doi:10.1016/j.jct.2013.12.021).
# Numbers after ± are expanded uncertainties.
# Assay: Boiling temperature at pressure P
# Conditions: 101.33 kPa; Liquid; Ebulliometric method (Recirculating still)
smiles,measurement,value
CO [methanol],Boiling temperature at pressure P,64.50 ± 0.1 °C
